Results published in US6218365A, “Serine protease inhibitors” (Akzo Nobel N.V., priority 1996, dated 2001).

Target: T1, Human thrombin (Homo sapiens, UniProt P00734)
T1 construct: purchased Centraal Laboratorium voor Bloedtransfusie, Amsterdam, The Netherlands
Assay: Anti-thrombin assay (hydrolysis of chromogenic substrate S-2238 by thrombin)
Format: biochemical
Details: final concentration causing 50% inhibition of the maximum absorbance of the blank; substrate S-2238, TNP buffer, 37° C.
Experimental: Thrombin (Factor IIa) is a factor in the coagulation cascade. The anti-thrombin activity of compounds of the present invention was assessed by measring spectrophotometrically the rate of hydrolysis of the chromogenic substrate s-2238 exterted by thrombin. Ths assay for anti-thrombin activity in a buffer system was used to assess the IC50 -value of a test compound.
Test medium: Trometbine-NaCl-polyethylene glycol 6000 (TNP) buffer. Reference compomd: 12581 (Kabi) Vehicle: TNP buffer. Solubilisation can be assisted with dimethylsulphoxide, methanol, ethanol, acetonitrile or tert.-butyl alcohol which are without adverse effects in concentrations up to 2.5% in the final reaction mixture.
Reagents*: 1. Tromethamine-NaCl (TN) buffer. Composition of the buffer: Tromethaine (Tris) 6.057 g (50 mmol), NaCl 5.844 g (100 mmol), water to 1 l. The pH of the solution is adjusted to 7.4 at 37° C. with HCl (10 mmol·l^-1). 2. TNP buffer: Polyethylene glycol 6000 is dissolved in TN buffer to give a concentration of 3 g·l^-1 3. S-2238 solution: One vial S-2238 (25 mg; Kabi Diagnostica, Sweden) is dissolved in 20 ml TN buffer to give a concentration of 1.25 mg·ml^-1 (2 mmol l^-1). 4. Thrombin solution: Human thrombin (16 000 nKat·vial^-1; Centraal Laboratorium voor Bloedtransfusie, Amsterdam, The Netherlands) is dissolved in TNP buffer to give a stock solution of 835 nKat·ml^-1. Immediately before use this solution is diluted with TNP buffer to give a concentration of 3.34 nKat·ml^-1.
The test and reference compounds are dissolved in Milli-Q water to give stock concentrations of 10^-2 mol·l^31 1. Each concentration is stepwise diluted with the vehicle to give concentrations of 10^-3, 10^31 4 and 10^-5 mol·l^-1. The dilutions, including the stock solution, are used in the assay (fina concentrations in the reaction mixture: 3·10^-3; 10^31 3; […]; 3·10^-5; 10^-5; 3·10^-6 and 10^-6 mol·l^-1, respectively).
At room temperature 0.075 ml and 0.025 ml test compound or reference compound solutions or vehicle are alternately pipetted into the wells of a microtiter plate and these solutions are diluted with 0.115 ml and […] TNP buffer, respectively. An aliquot of 0.030 ml S-2238 solution is added to each well and the plate is preheated and pre-incubated with shaking in an incubator (Amersham) for 10 min. at 37° C. Following pre-incubation the hydrolysis of S-2238 is started by addition of 0.030 ml thrombin solution to each well. The plate is incubated (with shaking for 30 s) at 37° C. Starting after 1 min of incubation, the absorbance of each sample at 405 nm is measured every 2 min. for a period of 90 min. using a kinetic microtiter plate reader (Twinreader plus, Flow Laboratories).
All data are collected in an IBM personal computer using LOTUS-MEASURE. For each compound concentration (expressed in mol·l^-1 reaction mixture) and for the blank the absorbance is plotted versus the reaction time in min.
Evaluation of responses: For each final concentration the maximum absorbance was calculated from the assay plot. The IC50 -value (final concentration, expressed in μmol·l^-1, causing 50% inhibition of the maximum absorbance of the blank) was calculated using the logit transformation analysis according to Hafier et al. (Arzneim.-Forsch.ADrug Res. 1977; 27(II): 1871-3).

Row | Substance | IC50
1 | HOOC--CH2 --D--Cha--Pro--Ppa.PSI.[COCO]--NHMe [Example 31] | 245 nM
2 | HOOC--CH2 --D--Coa--Pro--Ppa--(2-thiazolyl) [Example 53] | 2600 nM
3 | HOOC--CH2 --p--Cl--D--Phe--Pro--Ppa--(2-thiazolyl) [Example 47] | 2830 nM
4 | HOOC--CH2 --D--Phe--Pro--Ppa.PSI.[COCO]--OH [Example 3] | 540 nM
5 | 3,3-Diphenyipropionyl--Pro--Ppa.PSI.[COCO]--OH [Example 15] | 950 nM
6 | EthylSOx --D--Phe--Pr0--.PSI.[COCO]--NH2 [Example 38] | 1800 nM
